# Assay results reported in US8865734B2 (priority 2010, dated 2014).
# Columns and labels:
# [1] = test system: in vitro grown Mycobacteria (M. tuberculosis); assay: QUM: Quantification of in vitro grown Mycobacteria (in vitro growth fluorescence assay); assay type: cell-based; conditions: Mycobacterium tuberculosis; MIC, 80% bacterial growth inhibition; in vitro growth; read-out: QUM
# In short: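 Mycobacterium tuberculosis grown in vitro was quantified by fluorescence across compound dose responses. MIC is defined as the minimum concentration producing 80% growth inhibition.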
# [2] = test system: M. tuberculosis inside the host macrophage; assay: QIM: Quantification of Intracellular Mycobacteria (intracellular growth assay, phenotypic cell-based); conditions: Mycobacterium tuberculosis; MIC, 80% bacterial growth inhibition; intracellular growth; read-out: QIM
# Source text: Accordingly, a phenotypic cell-based assay, suitable for high throughput screening, which allows for the search of compounds that would prevent M. tuberculosis multiplication inside the host macrophage was utilized (WO2010003533A2), overcoming many of the numerous and burdensome steps involved in previous methodologies (Arain et al., 1996).
# A 120,000 small molecule compound library was screened using a validated phenotypic cell-based assay (WO2010003533A2). Active compounds from the primary screen were confirmed via dose response in the intracellular (QIM) assay and an in vitro (QUM) assay, wherein the abbreviation “QIM” stands for Quantification of Intracellular Mycobacteria and the abbreviation “QUM” stands for Quantification of in vitro grown Mycobacteria. […] The MIC is the minimum concentration of compound required to obtain 80% bacterial growth inhibition.
# The imidazopyridine compounds (scaffolds Ia and Ib; see Table 1) underwent derivatization according to the methods outlined below (Schemes 1-13). Resulting derivatives were examined for inhibitory activity (MIC) using the assays described above (Example 1) and the results are summarized in Table 1.
Compound,MIC [1],MIC [2]
"CCc1nc2ccc(Cl)cn2c1C(=O)NCc1ccc(Cl)cc1 [Compound 70, 6-Chloro-N-(4-chlorobenzyl)-2-ethylimidazo[1,2-a]pyridine-3-carboxamide]",< 1 µM,< 1 µM
"Cc1nc2ccccn2c1C(=O)NCc1ccc(-c2ccccc2)cc1 [Compound 16, N-(Biphenyl-4-ylmethyl)-2-methylimidazo[1,2-a]pyridine-3-carboxamide]",< 1 µM,< 1 µM
"Cc1nc2ccccn2c1NC(=O)Cc1ccccc1 [Compound 26, N-(2-Methylimidazo[1,2-a]pyridin-3-yl)-2-phenylacetamide]",> 20 µM,> 20 µM
"CCc1nc2cc(Cl)ccn2c1C(=O)NCc1ccc(N2CCC(C)CC2)cc1 [Compound 215, 7-Chloro-2-ethyl-N-(4-(4-methylpiperidin-1-yl)benzyl)imidazo[1,2-a]pyridine-3-carboxamide]",< 1 µM,< 1 µM
"CCc1nc2cc(Cl)ccn2c1C(=O)NCc1ccc2[nH]c(CN3CCOCC3)nc2c1 [Compound 206, 7-Chloro-2-ethyl-N-((2-(morpholinomethyl)-1H-benzo[d]imidazol-5-yl)methyl) imidazo[1,2-a]pyridine-3-carboxamide]",> 20 µM,> 20 µM
"CCc1nc2ccc(Cl)cn2c1C(=O)NCc1ccn(-c2ccc(C(F)(F)F)cc2)n1 [Compound 233, 6-Chloro-2-ethyl-N-4-((1-(4-(trifluoromethyl)phenyl)-1H-pyrazol-3-yl)methyl)imidazo[1,2-a]pyridine-3-carboxamide]",> 20 µM,> 20 µM
"CCc1nc2ccc(Cl)cn2c1C(=O)NCc1ccc(N2CCCCCC2)cc1 [Compound 221, N-(4-(Azepan-1-yl)benzyl)-6-chloro-2-ethylimidazo[1,2-a]pyridine-3-carboxamide]",< 1 µM,< 1 µM
"CCOC(=O)c1c(C)nc2ccc(-c3ccccc3)cn12 [Compound 4, Ethyl 2-methyl-6-phenylimidazo[1,2-a]pyridine-3-carboxylate]",> 20 µM,> 20 µM
"CCc1nc2ccc(Cl)cn2c1C(=O)NCc1ccc(N2CCCCC2C)cc1 (stereo not drawn) [Compound 272, 6-chloro-2-ethyl-N-(4-(2-methylpiperidin-1-yl)benzyl)imidazo[1,2-a]pyridine-3-carboxamide]",< 1 µM,< 1 µM
"CCc1nc2cc(Cl)ccn2c1C(=O)NCc1ccc(-c2ccc(OC)cn2)cc1 [Compound 135, 7-Chloro-2-ethyl-N-(4-(5-methoxypyridin-2-yl)benzyl)imidazo[1,2-a]pyridine-3-carboxamide]",1 to 20 µM,< 1 µM
"CCc1nc2ccccn2c1C(=O)NCc1ccc(N(C)Cc2ccc(OC(F)(F)F)cc2)cc1 [Compound 263, 2-Ethyl-N-(4-(methyl(4-(trifluoromethoxy)benzyl)amino)benzyl)imidazo[1,2-a]pyridine-3-carboxamide]",< 1 µM,< 1 µM
"CCc1nc2ccccn2c1C(=O)NCc1ccc(OCC(C)C)cc1 [Compound 61, 2-Ethyl-N-(4-isobutoxybenzyl)imidazo[1,2-a]pyridine-3-carboxamide]",< 1 µM,< 1 µM
"CCc1nc2cc(Cl)ccn2c1C(=O)NCc1ccc(-c2ccc(C#N)cc2C)cc1 [Compound 132, 7-Chloro-N-((4′-cyano-2′-methylbiphenyl-4-yl)methyl)-2-ethylimidazo[1,2-a]pyridine-3-carboxamide]",< 1 µM,< 1 µM
"Cc1nc2c(C#N)cccn2c1C(=O)NCc1ccccc1 [Compound 42, N-Benzyl-8-cyano-2-methylimidazo[1,2-a]pyridine-3-carboxamide]",> 20 µM,> 20 µM
"CCc1nc2ccc(C)cn2c1C(=O)NCc1ccc2ccn(C)c2c1 [Compound 67, 2-Ethyl-6-methyl-N-((1-methyl-1H-indol-6-yl)methyl)imidazo[1,2-a]pyridine-3-carboxamide]",< 1 µM,< 1 µM
"CCc1nc2ccc(C)cn2c1C(=O)NCc1ccc2c(ccn2C)c1 [Compound 66, 2-Ethyl-6-methyl-N-((1-methyl-1H-indol-5-yl)methyl)imidazo[1,2-a]pyridine-3-carboxamide]",< 1 µM,< 1 µM
"COc1ccc(CCNC(=O)c2c(C)nc3ccccn23)cc1 [Compound 22, N-(4-Methoxyphenethyl)-2-methylimidazo[1,2-a]pyridine-3-carboxamide]",> 20 µM,> 20 µM
"CCc1nc2ccc(Cl)cn2c1C(=O)NCc1ccc(-c2ccc(C)cc2)cc1 [Compound 86, 6-Chloro-2-ethyl-N-((4′-methylbiphenyl-4-yl)methyl)imidazo[1,2-a]pyridine-3-carboxamide]",< 1 µM,< 1 µM
"CCc1nc2ccc(C)cn2c1C(=O)NCc1ccc(-c2ccccc2)cc1 [Compound 62, N-(Biphenyl-4-ylmethyl)-2-ethyl-6-methylimidazo[1,2-a]pyridine-3-carboxamide]",< 1 µM,< 1 µM
"CCCCCC(=O)NCc1ccc(-c2ccc(CNC(=O)c3c(CC)nc4cc(Cl)ccn34)cc2)cc1 [Compound 184, 7-Chloro-2-ethyl-N-((4′-(hexanamidomethyl)biphenyl-4-yl)methyl)imidazo[1,2-a]pyridine-3-carboxamide]",< 1 µM,< 1 µM
"CCc1nc2cc(Cl)c(Cl)cn2c1C(=O)NCc1ccc(N2CCN(c3ccc(F)cc3)CC2)cc1 [Compound 180, 6,7-Dichloro-2-ethyl-N-(4-(4-(4-fluorophenyl)piperazin-1-yl)benzyl)imidazo[1,2-a]pyridine-3-carboxamide]",< 1 µM,< 1 µM
"Cc1nc2ccc(Cl)cn2c1C(=O)NCc1ccccc1 [Compound 29, N-Benzyl-6-chloro-2-methylimidazo[1,2-a]pyridine-3-carboxamide]",1 to 20 µM,1 to 20 µM
"CCc1nc2ccc(Cl)cn2c1C(=O)NCc1ccc(-c2ccccc2C(F)(F)F)cc1 [Compound 123, 6-Chloro-2-ethyl-N-((2′-(trifluoromethyl)biphenyl-4-yl)methyl)imidazo[1,2-a]pyridine-3-carboxamide]",1 to 20 µM,< 1 µM
"CCc1nc2ccc(Cl)cn2c1C(=O)NCc1ccc(N2CCC(COC(C)C)CC2)cc1 [Compound 291, 6-Chloro-2-ethyl-N-(4-(4-(isopropoxymethyl)piperidin-1-yl)benzyl)imidazo[1,2-a]pyridine-3-carboxamide]",< 1 µM,< 1 µM
"CCc1nc2cc(Cl)ccn2c1C(=O)NCc1ccc(-c2cccc(C)c2)cc1 [Compound 97, 7-Chloro-2-ethyl-N-((3′-methylbiphenyl-4-yl)methyl)imidazo[1,2-a]pyridine-3-carboxamide]",< 1 µM,< 1 µM
"CCc1nc2cc(Cl)ccn2c1C(=O)NCc1ccc(N2CCC(COC(C)C)CC2)cc1 [Compound 292, 7-Chloro-2-ethyl-N-(4-(4-(isopropoxymethyl)piperidin-1-yl)benzyl)imidazo[1,2-a]pyridine-3-carboxamide]",< 1 µM,< 1 µM
"CCc1nc2ccc(Cl)cn2c1C(=O)N1CCC(OCc2ccc(OC(F)(F)F)cc2)CC1 [Compound 230, (6-Chloro-2-ethylimidazo[1,2-a]pyridin-3-yl)(4-(4-(trifluoromethoxy)benzyloxy)piperidin-1-yl)methanone]",> 20 µM,> 20 µM
